Drawing on ChEMBL document CHEMBL1150752, “Inhibition of cow's milk xanthine oxidase by flavonoids” (J Nat Prod, 1988), this text covers IC50 and inhibition for 23 molecules.

The term IC50 denotes the concentration at which inhibition is half-maximal. The low end stands for greater potency in that assay, the high end for weaker potency in that assay. In general, inhibition refers to the percentage by which the read-out fell short of the control. The low end stands for little suppression, the high end for strong suppression.

The target of assay [1] is T1, Xanthine dehydrogenase/oxidase (Bos taurus, UniProt P80457). The experiment in a line: Inhibition of cow milk xanthine oxidase.
Assay [2] deals with T1, Xanthine dehydrogenase/oxidase. Briefly: Inhibition of cow milk xanthine oxidase at 50 ug/mL. Particulars: cattle.

T1 sequence (P80457 whole entry): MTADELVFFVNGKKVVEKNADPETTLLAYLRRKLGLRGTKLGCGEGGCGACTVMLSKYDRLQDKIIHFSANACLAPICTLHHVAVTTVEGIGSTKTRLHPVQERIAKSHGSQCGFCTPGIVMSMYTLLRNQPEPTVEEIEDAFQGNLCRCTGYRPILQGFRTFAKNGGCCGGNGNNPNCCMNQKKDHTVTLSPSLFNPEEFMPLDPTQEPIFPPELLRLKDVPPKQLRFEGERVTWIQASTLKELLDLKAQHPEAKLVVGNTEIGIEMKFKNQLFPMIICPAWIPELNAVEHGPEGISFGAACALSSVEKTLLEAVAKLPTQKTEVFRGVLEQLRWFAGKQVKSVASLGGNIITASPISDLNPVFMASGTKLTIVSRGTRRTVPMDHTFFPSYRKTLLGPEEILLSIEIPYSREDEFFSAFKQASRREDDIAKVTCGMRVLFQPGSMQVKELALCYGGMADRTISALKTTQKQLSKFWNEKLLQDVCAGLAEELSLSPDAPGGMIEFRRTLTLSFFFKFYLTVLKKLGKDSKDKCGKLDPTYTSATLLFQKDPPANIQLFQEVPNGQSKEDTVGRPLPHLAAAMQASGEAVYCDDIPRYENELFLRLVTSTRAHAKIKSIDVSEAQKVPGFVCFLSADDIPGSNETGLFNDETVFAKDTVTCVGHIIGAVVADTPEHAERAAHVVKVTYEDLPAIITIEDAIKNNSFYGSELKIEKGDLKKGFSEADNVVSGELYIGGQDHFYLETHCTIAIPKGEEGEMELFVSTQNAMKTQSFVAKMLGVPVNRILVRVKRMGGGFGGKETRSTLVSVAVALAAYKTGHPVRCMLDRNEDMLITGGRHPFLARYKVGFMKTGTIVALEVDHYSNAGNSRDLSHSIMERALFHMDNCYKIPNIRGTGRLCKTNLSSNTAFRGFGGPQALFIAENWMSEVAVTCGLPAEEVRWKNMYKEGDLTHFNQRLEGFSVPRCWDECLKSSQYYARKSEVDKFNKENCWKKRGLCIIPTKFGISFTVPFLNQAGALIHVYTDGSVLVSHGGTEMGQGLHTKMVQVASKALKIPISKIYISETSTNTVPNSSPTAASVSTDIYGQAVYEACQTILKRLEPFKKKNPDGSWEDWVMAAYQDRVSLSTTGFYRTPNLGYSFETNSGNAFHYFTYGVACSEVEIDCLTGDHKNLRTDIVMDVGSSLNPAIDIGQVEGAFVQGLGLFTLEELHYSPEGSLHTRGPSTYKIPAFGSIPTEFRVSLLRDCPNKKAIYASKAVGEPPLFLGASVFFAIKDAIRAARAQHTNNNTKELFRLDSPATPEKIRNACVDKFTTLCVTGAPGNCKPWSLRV

The molecule `COc1c(-c2ccc(O[C@@H]3O[C@H](CO)[C@@H](O)[C@H](O)[C@H]3O)c(O)c2)oc2cc(O)cc(O)c2c1=O` registered an IC50 in assay [1] of 35.6 µM. Also, the inhibition at 50 µg/mL in assay [2] was found to be 69.1%.
For the molecule `O=c1cc(-c2ccc(O)c(O)c2)oc2cc(O[C@@H]3O[C@H](CO)[C@@H](O)[C@H](O)[C@H]3O)cc(O)c12` (single isomer, unassigned) [GALUTEOLIN], half-maximal inhibition in assay [1] (IC50) required 75.9 µM. Besides, the inhibition at 50 µg/mL in assay [2] was found to be 67.2%.
Turning to `COc1c(O)cc2oc(-c3ccc(O)cc3)c(OC)c(=O)c2c1O` [3,6-DIMETHOXY KAEMPFEROL], half-maximal inhibition in assay [1] (IC50) required 0.03 µM. Moreover, in assay [2], the inhibition at 50 µg/mL came out at 95%.
With `COc1c(-c2ccc(O)c(O)c2)oc2cc(O)cc(O)c2c1=O` [3-O-METHYLQUERCETIN], in assay [1], half-maximal inhibition (IC50) required 31.6 µM. In assay [2], this molecule yielded an inhibition at 50 µg/mL of 98.5%.
In the case of `COc1ccc(-c2cc(=O)c3c(O)cc(O)cc3o2)cc1` [ACACETIN], in assay [1], the IC50 was determined as 14.1 µM. The same molecule returned an inhibition at 50 µg/mL in assay [2] of 55.7%.
On the same counts, the results for `O=c1cc(-c2ccc(O)c(-c3c(O)cc(O)c4c(=O)cc(-c5ccc(O)cc5)oc34)c2)oc2cc(O)cc(O)c12` [AMENTOFLAVONE] are 35.3 µM and 100%.
Molecule `O=c1cc(-c2ccccc2)oc2cc(O)c(O)c(O)c12` [BAICALEIN] displayed an IC50 in assay [1] of 3.3 µM. The molecule also came in with an inhibition at 50 µg/mL in assay [2] of 85.5%.
In assay [1], `O=C1c2c(O)cc(O)cc2O[C@H](c2ccc(O)cc2)[C@H]1O` [DIHYDROKAEMPFEROL] returned an IC50 of 93.8 µM. This molecule had an inhibition at 50 µg/mL in assay [2] of 66.9%.
In turn, `O=C1CC(c2ccc(O)c(O)c2)Oc2c1c(O)cc(O)c2[C@@H]1C(=O)c2c(O)cc(O)cc2O[C@H]1c1ccc(O)cc1` (stereo not given in full) [FUKUGETIN] yielded an IC50 in assay [1] of 22.3 µM. The same molecule had an inhibition at 50 µg/mL in assay [2] of 97.2%.
On to `COc1cc(-c2oc3cc(O)cc(O)c3c(=O)c2OS(=O)(=O)O)ccc1O` [PERSICARIN], for which the IC50 in assay [1] was 34.6 µM. For the same molecule, the inhibition at 50 µg/mL in assay [2] stood at 90.3%.
`COc1cc(O)c2c(c1)O[C@H](c1ccc(O)cc1)CC2=O` [SAKURANETIN] returned an inhibition at 50 µg/mL in assay [2] of 0%.
As to `COc1ccc(-c2cc(=O)c3c(O)cc(O)c(-c4cc(-c5cc(=O)c6c(O)cc(OC)cc6o5)ccc4OC)c3o2)cc1` [SCIADOPITISIN], the inhibition at 50 µg/mL in assay [2] is 0%.
Consider `O=c1cc(-c2ccc(O)cc2)oc2cc(O)c(O)c(O)c12` [SCUTELLAREIN], for which, in assay [1], the IC50 came to 12.6 µM. Moreover, at 50 µg/mL the inhibition in assay [2] was 67.3%.
As for `O=C(O)[C@H]1O[C@@H](Oc2cc3oc(-c4ccc(O)cc4)cc(=O)c3c(O)c2O)[C@H](O)[C@@H](O)[C@@H]1O` [SCUTELLARIN], in assay [2], the inhibition at 50 µg/mL was determined as 16.6%.
Molecule `O=c1c(-c2ccc(O[C@@H]3O[C@H](CO)[C@@H](O)[C@H](O)[C@H]3O)cc2)coc2cc(O)cc(O)c12` [SOPHORICOSIDE] had an inhibition at 50 µg/mL in assay [2] of 15.3%.
As to `COc1cc2oc(-c3ccc(O)cc3)cc(=O)c2c(O)c1[C@@H]1O[C@H](CO)[C@@H](O)[C@H](O)[C@H]1O` [SWERTISIN], in assay [2], the inhibition at 50 µg/mL amounted to 24.9%.
In assay [2], `COc1c(O[C@@H]2O[C@H](CO)[C@@H](O)[C@H](O)[C@H]2O)cc2occ(-c3ccc(O)cc3)c(=O)c2c1O` [TECTORIDIN] registered an inhibition at 50 µg/mL of 0%.
Still for that read-out and setting: in the case of `COc1c(O)cc2occ(-c3ccc(O)cc3)c(=O)c2c1O` [TECTORIGENIN] it was 0%; in that of `COc1ccc(-c2cc(=O)c3c(O)cc(O[C@@H]4O[C@H](CO)[C@@H](O)[C@H](O)[C@H]4O)cc3o2)cc1` [TILIANINE], 0%.
`COc1c(-c2ccc(O)c(O)c2)oc2cc(O[C@@H]3O[C@H](CO)[C@@H](O)[C@H](O)[C@H]3O)cc(O)c2c1=O` [TRANSILIN] yielded an inhibition at 50 µg/mL in assay [2] of 39.5%.
`O=c1c(O[C@@H]2O[C@H](CO)[C@H](O)[C@H](O)[C@H]2O)c(-c2ccc(O)cc2)oc2cc(O)cc(O)c12` [TRIFOLIN]: in assay [2], the inhibition at 50 µg/mL amounted to 16.1%.
With `O=c1cc(-c2ccc(O)cc2)oc2c([C@@H]3O[C@H](CO)[C@@H](O)[C@H](O)[C@H]3O)c(O)cc(O)c12` [VITEXIN], 50 µg/mL produced 0% inhibition in assay [2].
Take `COc1c(O)cc(O)c2c(=O)cc(-c3ccccc3)oc12` [WOGONIN]: it took 176 µM to reach half-maximal inhibition in assay [1] (IC50). Besides, in assay [2], the inhibition at 50 µg/mL is 50.2%.
